Entries after “also recorded” stand apart in the source; their conditions may differ. Like-named read-outs stand apart in the source and are kept apart here. Where no end group is shown, it is not given here.
Key:
SKME1-28 = assay: Complement dependent cytotoxicity (CDC); format: cell-based, human
Excerpt: (§1) Anti-carbohydrate antibodies may mediate complement dependent cytotoxicity (CDC) better than cytotoxicity associated with various effector cells. Subsequently, we have initially examined CDC mediation of various sera raised either to peptides or against the multivalent LeY-PAA form. […] We examined the ability of the sera to mediate complement dependent cytotoxicity (CDC) of the SKBR3 and MCF7 human breast adenocarcinoma cell lines, the ovarian tumor cell line OVAR-3 and the human melanoma lines WM793 and SKMEL-28 compared to that of the LeY-PAA generated sera. Positive control antibodies were BR55-2 which mediates CDC of the adenocarcinoma lines, and ME361 which mediates killing of WM793. Negative controls were pre-immune sera, an irrelevant peptide immunogen (C1) and two peptides (G1 and G2) isolated from phage display that are reactive with ME361.

SKBR3 = assay: Complement dependent cytotoxicity (CDC); format: cell-based, human
Excerpt: as §1

MCF-7 = assay: Complement dependent cytotoxicity (CDC); format: cell-based, human
Excerpt: as §1

OVAR-3 = assay: Complement dependent cytotoxicity (CDC); format: cell-based, human
Excerpt: as §1

WM793 = assay: Complement dependent cytotoxicity (CDC); format: cell-based, human
Excerpt: as §1

HIV-1/MN = assay: HIV-1 cell free neutralization (syncytia formation); format: cell-based; details: anti-peptide sera
Excerpt: (§2) FIGS. 7A, 7B and 7C depict anti-peptide sera mediation of HIV-1 cell free neutralization.
(§3) Mannose, sialyl and histo-blood group related carbohydrate epitopes (particularly LeY) are found on the major envelope protein of the human immunodeficiency virus (HIV). Consequently, we examined the extent to which the anti-peptide sera could mediate HIV-1 cell free neutralization. We observed that sera from Balb/c and C57B1/6 mice immunized with P1 or P2, neutralized HIV-1/MN at final dilution's up to 1:64 (FIGS. 7a-c). FIG. 7a illustrates the neutralization of HIV-1/MN by anti-P1 and P2 sera from Balb/c mice. Normal human sera (NHS), as well as the anti-P3 sera, were ineffective at blocking syncytia formnation, whereas human α-HIV-1 sera from 4 different infected patients neutralize cell free virus at dilution's up to 1:64. Sera derived from C57B1/6 mice also followed this profile (FIG. 7b). The isolate specificity was further determined by cell free neutralization of the HIV-1/3B isolate (FIG. 7c).

[1] = tested on: anti-LeY monoclonal antibody BR55-2; assay: ELISA reaction of MAb BR55-2 with peptides (MAP forms); format: binding; details: for ELISA reactivity of BR55-2 with MAP peptide: MAP peptide forms; for binding of peptide to BR55-2 in ELISA: monovalent peptide
Method: (§4) FIGS. 2A and 2B depict the reactivity of putative motifs by ELISA. […] Constant amounts of BR55-2 were incubates with increasing amounts of MAP peptides, and then reaction of free mAb with LeY was measured by ELISA. Data points reflect 50% inhibition at 2 μg/ml of peptide inhibitor as measured by reduction of O.D. values in ELISA.
(§5) For example, polyclonal antibodies raised against the motif YYRYD might cross-react with MCP and with LeY. […] To further determine the extent of cross-reactivity for these motifs, peptides were synthesized repeating the respective putative centralized motifs shown in Table 2. It is theorized that the repeating tract should adopt a helix configuration which emulates many extended carbohydrate structures. To evaluate the antigenic mimicry of motif forms, we synthesized respective multiple antigen peptides (MAP) forms for detection of a reactivity pattern with the anti-LeY monoclonal antibodies BR55-2, and 15.6 (also referred to as BR15.6) and the anti-ganglioside antibody ME361 (FIG. 2a). Significant reactive sequences in FIG. 2a correspond to 3 peptides,
(§6) BR55-2 and 15.6A show distinct binding properties for LeY expressing tumor cells. […] The general mimicry of the K1106, K1105 and K1107 peptides for Le antigens is further assessed by ELISA reactivity with the anti-SA-LeX monoclonal antibody FH-6 (FIG. 3). These peptides are also reactive with this antibody. The significance of this reactivity is that previous reports indicate that peptides might only be reactive with antibodies that isolate them and in fact it is expected that peptide mimotopes might be not true mimics of carbohydrates.

[2] = tested on: BR55-2 binding to LeY-PAA; assay: Inhibition of mAb BR55-2 binding to solid-phase LeY-PAA by soluble MAP peptides (ELISA); details: 20 times molar excess of MAP peptide
Method: as §4, §6

[3] = tested on: anti-SA-LeX monoclonal antibody FH-6; assay: ELISA reactivity of peptides with antibody FH-6; format: binding
Excerpt: FIG. 3 depicts the reactivity of the anti-sLex antibody FH-6 with MAP peptides.
as §6

[4] = ELISA with various synthetic carbohydrate subunit probes; format: binding
Method: To further evaluate the specificity of the anti-carbohydrate IgG fraction derived from proteosome-conjugate immunized mice, ELISA assays were performed with plates coated with various synthetic carbohydrate subunit probes (FIG. 5a). […] It was observed that the anti-peptide sera (1:100 titer) was reactive with respective carbohydrate probes above background binding. Preferences for antisera against the YPY motif include Fucα1-3GlcNAc representative of LeY, and Lex, the H type 1 structure Fucα1-2Galβ1-3GlcNAc representative of Leb, and the disaccharide Galb1-4Glc which is a major constituent bacterial LOS. […] The antisera reacted with both H type 1 and H type 2 (Fucα1-2Galβ1-4GlcNAc) structures, with the type 1 structure displaying slightly more activity. This may reflect interaction with the common Fucα1-2Gal structure found on type 1 and type 2 structures or functional groups that are shared within the common topography of these two chains.
In contrast to the proteosome-peptide conjugates, increased specificity for LeY is observed for the MAP forms (FIG. 5b). At 1:50 dilution, the LeY reactivity of the antisera is approximately 3 fold more reactive with LeY than with Leb, Lex-pentasaccharide, SLea, SLex. […] Considering the diminished reactivity against LeX which shares the Galβ1→4(Fucα1→3)GlcNAcβ1 component it would appear that a fraction of antibodies react with a conformational component of LeY, providing for its increased reactivity, or alternatively, the affinity for LeY is increased.
To further evaluate the specificity of the 1104 peptide we synthesized 1104 as a MAP form and immunized Balb/c mice, with QS-21 as adjuvant and examined its reactivity pattern with various Le synthetic probes by ELISA (FIG. 9). The utility of MAP peptides is in their apparent advantage as immunogens. […] However, the MAPS described above contain T cell epitopes within the peptide sequence. […] We have observed this trend with MAP peptides.
At 1:50 serum dilution (FIG. 9), we observed about the same level of reduced reactivity for Leb hexasaccharide, LeX-pentasaccharide, sLeX, Lea, and sLea, while higher levels of reactivity are observed for LeY and LeY constituents. […] This selective interaction sets apart reactivities between Leb and LeY, since reactivity is observed for the H type 1 constituent of Leb.

[5] = ELISA reactivity of sera of peptide-immunized mice with LeY and Leb; format: in vivo, Balb/c mice; details: anti-1104 MAP sera
Excerpt: The immunological presentation of the putative motifs, (i.e. short or longer peptides, presentation in a helix or beta bend, monovalent or multivalent (clustered forms)) might mimic overlapping epitopes on otherwise different carbohydrate structures. To test this idea, Balb/c mice were immunized with peptide-proteosome conjugates representative of the motifs YYPYD (SEQ ID NO: 6), and YYRYD (SEQ ID NO: 7) or the same peptides as MAP forms that are multiple repeats of the motifs administered with QS-21. Sera were collected 1 week after the last immunization, pooled and tested for reactivity with LeY and Leb. […] Superposition of LeY and Leb structures indicate that despite the change of glycosidic linkage from β1-3 to β1-4 in the type 1 and 2 chains, resulting conformational features of the respective sugar moieties are still shared forming a common topography. The only effective difference is the position of the N-acetyl and hydroxymethyl groups projected on opposite sides of the type 1 and 2 difucosylated structures.
Sera derived from immunization with the MAP peptides indicate that the IgM isotype is the predominate form, titering out to 1:2000 for the two carbohydrate forms, but displaying significant differences in reactivity for LeY and Leb that are accentuated at 1:100 and 1:500 titer (FIG. 4b). […]

[6] = tested on: anti-LeY monoclonal antibody 15.6 (BR15.6, 15.6A); assay: ELISA reaction of MAb 15.6 (BR15-6A) with peptides; format: binding
Method: as §4, §5
(§7) BR55-2 and 15.6A show distinct binding properties for LeY expressing tumor cells. […] The general mimicry of the K1106, K1105 and K1107 peptides for Le antigens is further assessed by ELISA reactivity with the anti-SA-LeX monoclonal antibody FH-6 (FIG. 3). These peptides are also reactive with this antibody. […]

HIV-1/3B isolate = assay: HIV-1 cell free neutralization; format: cell-based; details: Balb/c anti-peptide sera
Excerpt: as §2, §3

[7] = tested on: anti-ganglioside antibody ME361; assay: ELISA reaction of MAb ME361 with MAP peptides; format: binding; details: MAP peptide forms
Method: as §4, §5, §7

[8] = biological target: anti-LeY monoclonal antibody BR55-2; assay: competition ELISA: soluble MAP peptide against solid-phase LeY-PAA for BR55-2 (FIG. 2b)
[9] = SKME1-28, sera raised to the immunogen, final dilution 1:15
[10] = SKBR3, sera raised to the immunogen, final dilution 1:15
[11] = MCF-7, sera raised to the immunogen, final dilution 1:15
[12] = OVAR-3, sera raised to the immunogen, final dilution 1:15
[13] = WM793, sera raised to the immunogen, final dilution 1:15
[14] = anti-1104 MAP sera, 1:50 serum dilution

GGIYYRYDIYYRYDIYYRYD (Novel Sequence) [Peptide P3]
averaged percent cytotoxicity (SKME1-28): 32% | averaged percent cytotoxicity (SKBR3): 86% | averaged percent cytotoxicity (MCF-7): 56% | averaged percent cytotoxicity (OVAR-3): 86% | averaged percent cytotoxicity (WM793): 28% | blocking syncytia formation (HIV-1/MN): ineffective

GGIYWRYDIYWRYDIYWRYD (Novel Sequence) [Peptide K61106]
ELISA reactivity of BR55-2 with MAP peptide [1]: bound very well | inhibition of BR55-2 binding to LeY [2]: 50% | ELISA reactivity with FH-6 [3]: also reactive

GGYYRYDIYYRYDIYYRYD (Novel Sequence) [Peptide K61107]
ELISA reactivity of BR55-2 with MAP peptide [1]: bound very well | inhibition of BR55-2 binding to LeY [2]: 50% | ELISA reactivity with FH-6 [3]: also reactive | less reactivity with Lea and Sialyl-Lex ([4]; antisera to MAP, 1:50 dilution): about 1 fold

APWLYGPA (Novel Sequence) [reference compound]
binding of peptide to BR55-2 in ELISA [1]: does not bind

IMILLIFSLLWFGGA (Novel Sequence) [Peptide B1]
averaged percent cytotoxicity (SKME1-28; [9]): 10% | averaged percent cytotoxicity (SKBR3; [10]): 90% | averaged percent cytotoxicity (MCF-7; [11]): 70% | averaged percent cytotoxicity (OVAR-3; [12]): 85% | averaged percent cytotoxicity (WM793; [13]): 10% | increase in reactivity for LeY over Leb [5]: three to fold increase | isotype of anti-peptide sera [5]: predominately of IgM isotype | ELISA reactivity with FH-6 [3]: does not react | serum reactivity with Fucal-3GlcNAc [4, 14]: best reactivity | serum reactivity with Fucα1-4GIcNAc [4, 14]: significantly reduced reactivity | serum reactivity with Galβ1-3Gal [4, 14]: Minimal binding

APWLYAP (Novel Sequence) [reference compound]
binding of peptide to BR55-2 in ELISA [1]: negative | ELISA reactivity of 15.6 / BR15-6A with peptide [6]: negative

GGIYYPYDIYYPYDIYYPYD (Novel Sequence) [Peptide P1]
averaged percent cytotoxicity (SKME1-28; [9]): 10% | averaged percent cytotoxicity (SKBR3; [10]): 90% | averaged percent cytotoxicity (MCF-7; [11]): 66% | averaged percent cytotoxicity (OVAR-3; [12]): 89% | averaged percent cytotoxicity (WM793; [13]): 9% | neutralization of HIV-1/3B infection in vitro (HIV-1/3B isolate): effective in neutralizing

GVVWRYTAPVHLGDG [Peptide G1, GVVWRYTAPVHLGDG]
averaged percent cytotoxicity (SKME1-28): 75% | averaged percent cytotoxicity (SKBR3): 10% | averaged percent cytotoxicity (MCF-7): 20% | averaged percent cytotoxicity (OVAR-3): 9% | averaged percent cytotoxicity (WM793): 90%

GGIYYPYDIYYPYDIYYPYD (Novel Sequence) [Peptide K61105]
ELISA reactivity of BR55-2 with MAP peptide [1]: reduces the recognition ability | ELISA reactivity with FH-6 [3]: also reactive

GGGAPWLYGAPWLYGAPWLY [Peptide K61223, triple repeat of the APWLY motif]
ELISA reactivity of BR55-2 with MAP peptide [1]: not reactive; also recorded: little reactivity | ELISA reactivity of 15.6 / BR15-6A with peptide [6]: not reactive | ELISA reactivity (O.D.) of ME361 with MAP peptide [7]: not reactive

LDVVLAWRDGLSGAS [Peptide G2, LDVVLAWRDGLSGAS]
averaged percent cytotoxicity (SKME1-28): 87% | averaged percent cytotoxicity (SKBR3): 13% | averaged percent cytotoxicity (MCF-7): 15% | averaged percent cytotoxicity (OVAR-3): 11% | averaged percent cytotoxicity (WM793): 90%

GGIYWRYDIYWRYDIYWRYD (Novel Sequence) [Peptide P2, elsewhere called YYRYD motif]
averaged percent cytotoxicity (SKME1-28): 13% | averaged percent cytotoxicity (SKBR3): 80% | averaged percent cytotoxicity (MCF-7): 29% | averaged percent cytotoxicity (OVAR-3): 84% | averaged percent cytotoxicity (WM793): 9% | neutralization of HIV-1/3B infection in vitro (HIV-1/3B isolate): effective in neutralizing

GGIYWRYDIYWRYDIYWRYD (also: multiple antigen peptide (MAP) form, branches and core not given here) [K61106 MAP peptide …]
molar excess giving 50% inhibition (times molar excess) [8]: 20

GGYYRYDIYYRYDIYYRYD (also: multiple antigen peptide (MAP) form, branches and core not given here) [K61107 MAP peptide …]
molar excess giving 50% inhibition (times molar excess) [8]: 20
